Like-named read-outs stand apart in the source and are kept apart here.

Experimental findings from US6469052B2, “Compounds for the photodecontamination of pathogens in blood” (Cerus Corporation, priority 1993, dated 2002) are described below.

Data set [1] deals with Salmonella typhimurium TA1538. Kind of data set: Ames assay (dark mutagenicity), strain TA1538.
The subject of data set [2] is Salmonella typhimurium TA100.
A further data set relates to HIV-1. As to conditions: concentrations of 64 μM of compound or higher.
Data set [3] has as its system Salmonella typhimurium TA1537. Kind of data set: Ames assay (dark mutagenicity), strain TA1537. As to conditions: TA1537 in the presence of S9. From the text: The second property that is important in testing a compound for use in methods of the present invention is mutagenicity. The most widely used mutagen/carcinogen screening assay is the Ames test. This assay is described by D. M. Maron and B. N. Ames in Mutation Research 113: 173 ( 1983) and a specific screen is described in detail in Example 17, below. The Ames test utilizes several unique strains of Salmonella typhimurium that are histidine- dependent for growth and that lack the usual DNA repair enzymes. The frequency of normal mutations that render the bacteria independent of histidine (i.e., the frequency of spontaneous revertants) is low. The test allows one to evaluate the impact of a compound on this revertant frequency.
In this example the compounds of the present invention are tested for their dark mutagenicity using an Ames assay. The procedures used for the Salmonella mutagenicity test as described in detail by Maron and Ames were followed exactly. Maron, D. M. and B. N. Ames, Mutation Research 113: 173 ( 1983). A brief description for each procedure is given here. The tester strains TA97a, TA98, TA100, TA102, TA1537 and TA1538 were obtained from Dr. Ames. TA97a, TA98, TA1537 and TA1538 are frameshift tester strains. TA100 and TA102 are base-substitution tester strains. Upon receipt each strain was cultured under a variety of conditions to confirm the genotypes specific to the strains.
The first tests done with the strains were to determine the range of spontaneous reversion for each of the strains. With each mutagenicity experiment the spontaneous reversion of the tester strains to histidine independence was measured and expressed as the number of spontaneous revertants per plate. This served as the background controls.
For all experiments, the pre-incubation procedure was used. In this procedure one vial of each tester strain was thawed and 20 μL of this culture was added to 6 mL of Oxoid Nutrient Broth #2. This solution was allowed to shake for 10 hours at 37° C. In the pre-incubation procedure, 0.1 mL of this overnight culture was added to each of the required number of sterile test tubes. To half of the tubes 0.5 mL of a 10% S-9 solution containing Aroclor 1254 induced rat liver extract (Molecular Toxicology Inc., Annapolis, Md.), and MgCl2, KCl, glucose-6-phosphate, NADP, and sodium phosphate buffer (Sigma, St. Louis, Mo.) were added. To the other half of the tubes 0.5 mL of 0.2M sodium phospate buffer, pH 7.4, was used in place of the S-9 mixture (the -S9 samples). Finally 0.1 mL of the test solution containing either 0, 0.1, 0.5, 1, 5, 10, 50, 100, 250, or 500 μg/mL of the test compound was added. The 0.7 mL mixture was vortexed and then pre-incubated while shaking for 20 minutes at 37° C. After shaking, 2 mL of molten top agar supplemented with histidine and biotin were added to the 0.7 mL mixture and immediately poured onto a minimal glucose agar plate (volume of base agar was 20 mL). The top agar was allowed 30 minutes to solidify and then the plates were inverted and incubated for 44 hours at 37° C. After incubation the number of revertant colonies on each plate were counted. […] (“n” represents the number of replicates performed for each data point.)
Maron and Ames (1983) describe the conflicting views with regard to the statisical treatment of data generated from the test.
For orientation: The Ames test detects mutagens through reverse mutation in bacteria.

A further data set relates to human platelets. As to conditions: 100 μM compound. As to the method:
To measure the effects of the present compounds and methods of decontamination on platelet function using these four indicators, four samples were prepared for each compound tested, two control samples and two containing compound. Three units of human platelets were obtained from the Sacramento Blood Center, Sacramento, Calif. These were each transferred under sterile conditions to 50 ml centrifuge tubes, then aliquots of each unit were transferred into a second set of 50 ml sterile centrifuge tubes. To each centrifuge tube containing platelet concentrate (PC), an aliquot of compound stock was added to reach a final concentration of 100 μM of compound. […] The samples were pipetted gently up and down to mix. Then aliquots (either 3 ml or 8 ml) of each sample was transferred to two sterile Teflon™ Medi-bags™ (American Fluoroseal Co., Silver Springs, Md.) (presently owned by The West Company, Lionville, Pa.). Samples were treated in one of two different sized bags, having either 3 ml or 8 ml capacity. […] For each compound tested, two control samples without compound were prepared by again removing aliquots of platelet concentrate (17 ml if using an 8 ml bag, […] if using a 3 ml bag) from the same one of the first set of 50 ml centrifuge tubes from which the compound sample was drawn, and dividing into Medibags, as before. One of each pair of Medibags containing a compound, and one of each pair of control Medibags, were illuminated for 5 Joules/cm^2 on the device described in Example 1, above. Then all experimental and control Medibags were placed on a platelet shaker for storage for 5 days. The same experiments were repeated several times to obtain more statistically meaningful data, as represented by “n”, the number of data points represented, in the graphs of FIGS. 21-24, discussed below.
A Sysmex cell counter was used to measure platelet count in the platelet samples. Samples were diluted 1:3 in blood bank saline.

Description for HIV-1: Pathogen inactivation efficiency of several compounds of the present invention was evaluated by examining the ability of the compounds to inactivate cell-free virus (HIV). Inactivation of cell-free HIV was performed as follows.
As in the R17 assay, small aliquots of the compounds listed in TABLES 10 and 11, below, at the concentrations listed in the table, were added to stock HIV-1 to a total of 0.5 mL. The stock HIV (10^5-10^7 plaque forming units/mL) was in DMEM/15% FBS. […] Controls included HIV-1 stock only, HIV-1 plus UVA only, and HIV-1 plus the highest concentration of each psoralen tested, with no UVA. Post irradiation, all samples were stores frozen at −70° C. until assayed for infectivity by a microtiter plaque assay. Aliquots for measurement of residual HIV infectivity in the samples treated with a compound of the present invention were withdrawn and cultured.
Residual HIV infectivity was assayed using an MT-2 infectivity assay. […] After 24 to 48 hours, the red fluorescence-stained microplaques were visualized by placing the plates on an 8,000 μW/cm^2 304 nm UV light box (Fotodyne, Inc., New Berlin, Wis.). The plaques were counted at a magnification of ×20 to ×25 through a stereomicroscope.

On to `Cc1oc2c(C)c3oc(=O)cc(C)c3cc2c1COCCN` [Compound 2, 4′-(4-amino-2-oxa)butyl-4,5′,8-trimethylpsoralen], for which the revertants per plate in data set [1] (TA1538 −S9, 5 μg/plate) is listed as −8; in data set [1] (TA1538 −S9, 10 μg/plate), −13; in data set [2] (TA100 +S9, 5 μg/plate), −18; in data set [2] (TA100 +S9, 10 μg/plate), 1; in data set [2] (TA100 +S9, 50 μg/plate) it was 115; in data set [2] (TA100 +S9, 100 μg/plate) it was 96. Besides, the revertants per plate is listed as 103 in data set [2] (TA100 −S9, 5 μg/plate); 46 in data set [2] (TA100 −S9, 10 μg/plate); 182 in data set [2] (TA100 −S9, 50 μg/plate); 121 in data set [2] (TA100 −S9, 100 μg/plate). For the same molecule, the “HIV inactivation activity compared with AMT” value in the data set with HIV-1 is recorded as “significantly more active than AMT”.
Take `Cc1oc2c(C)c3oc(=O)cc(C)c3cc2c1CNCCCCN` [Compound 6, 4′-(6-amino-2-aza)hexyl-4,5′,8-trimethylpsoralen]: the revertants per plate was −5 in data set [1] (TA1538 −S9, 5 μg/plate); −2 in data set [1] (TA1538 −S9, 10 μg/plate); 12 in data set [2] (TA100 +S9, 5 μg/plate); −5 in data set [2] (TA100 +S9, 10 μg/plate); 24 in data set [2] (TA100 +S9, 50 μg/plate); −2 in data set [2] (TA100 +S9, 100 μg/plate). Further, in data set [2] (TA100 +S9, 250 μg/plate), the revertants per plate was −38. Moreover, in data set [3], the “concentration showing a response” value stood at 50 μg/plate. The “platelet count, Day 5 treated sample versus Day 5 control” value in the data set with human platelets (5 Joules/cm^2) is given as “counts equivalent to the 5 day control”. Besides, the “platelet count compared with samples treated with light alone” value in the data set with human platelets (5 Joules/cm^2, 5 days storage) is on record as “higher platelet count than samples treated with light alone”.
